Source: US8962558B2, “Methods for reducing GnRH-positive tumor cell proliferation using the GnRH antagonist IN3” (priority 1997, dated 2015)
Square brackets hold non-standard residues; d marks the D form. Peptide text beside a SMILES is read from it. dPhe(4-Cl) = N[C@H](Cc1ccc(Cl)cc1)C(=O)O; d2Nal = N[C@H](Cc1ccc2ccccc2c1)C(=O)O; dCit = NC(=O)NCCC[C@@H](N)C(=O)O; d3Pal = N[C@H](Cc1cccnc1)C(=O)O

How the values were obtained:
[1] = system: small cell lung carcinoma cell lines NCI-H1688, NCI-H1417, NCI-H1672, NCI-H1836, DMS-79, DM-553, DMS-114, SW-1271, NCI-H2227, NCI-HI1963, SHP-77 and H-69 AR; assay: Proliferation assay on small cell lung carcinoma cell lines (Example 3); assay type: cell-based, human; conditions: small cell lung carcinoma cell lines treated with the substance
Procedure: In another embodiment, the small cell lung carcinoma cell lines NCI-H1688, NCI-H1417, NCI-H1672, NCI-H1836, DMS-79, DM-553, DMS-114, SW-1271, NCI-H2227, NCI-HI1963 and SHP-77 in addition to the multidrug-resistant small cell lung carcinoma cell line H-69 AR, are cultured as described above and then treated as described by Emons, G., et al., 1993, supra, and Irmer, G., 1995, supra, with various concentrations of the GnRH agonists (D-Lys6)-GnRH, Lutrelin, Histrelin, Nafarelin, Azagly-Nafarelin, Deslorelin, Cystorelin, Decapeptyl, Gonadorelin, GnRH, D-Lys(6)-GnRH II, Lamprey GnRH II, (D-Lys6)-Lamprey GnRH, (D-Lys6)-Lamprey GnRH II and Lamprey GnRH III.
In another embodiment, the small cell lung carcinoma cell lines NCI-H1688, NCI-H1417, NCI-H1672, NCI-H1836, DMS-79, DM-553, DMS-114, SW-1271, NCI-H2227, NCI-HI1963 and SHP-77 in addition to the multidrug-resistant small cell lung carcinoma cell line H-69 AR, are cultured as described above for the above-mentioned cell lines, and then treated as described by Emons, G., et al., 1993, supra, and Irmer, G., 1995, supra, with a concentration of the GnRH antagonist Cetrorelix (also known as Cetrotide®) or with a GnRH peptide antagonist Ac-D-Nal(2)-D-4-ClPhe-D-Pal-Ser-1-MePal-D-IsopropylLys-Leu-IsopropylLys-Pro-D-AlaNH2 wherein Mepal is 1-Methyl-3-[3′-pyridyl]-alanine or Ant 135-25 (also known as Ac-D-Nal(2)-D-4-Cl-Phe-D-Pal-Ser-1-MePal-D-IsopropylLys-Leu-IsopropylLys-Pro-D-AlaNH2), Teverelix (also known as Antarelix®), Cetrorelix (also known as Cetrotide®), Abarelix (also known as Plenaxis®), D-63153 (also known as Ozarelix®), acyline, azaline B, antide (also known as Iturelix®), Degarelix (FE200486), Ganirelix, Nal-Glu, Orntide (also known as Ornirelix®) or with antagonist peptidomimetic ((2S)-2-[5-[2-(2-azabicyclo[2,2,2]oct-2-yl)-1,1-dimethyl-2-oxoethyl]-2-(3,5-dimethylphenyl)-1H-indol-3-yl]-N-(2-pyridin-4-ylethyl-)propan-1-amine (also known as “IN3”).

[2] = system: malignant gliomas U-87MG and U-373MG; assay: In vivo study with tumor-implanted nude mice (Example 4); conditions: daily dosages
Procedure: An effect of the treatment of tumor-implanted nude mice (Pinski et al., supra) each with one of the GnRH agonists Buserelin, Triptorelin, Goserelin, and Leuprorelin and each with one of the GnRH antagonists Cetrorelix® (SB-75), Antarelix®, Antide®, and Ramorelix® on the growth of malignant gliomas U-87MG and U-373MG was carried out using daily dosages and controls in nude mice using analysis techniques described for the determination of the efficacy of similar peptides in Pinski et al., supra.

[3] = system: human glioblastoma cell lines U-87MG or U-373MG, Kaposi sarcoma cell lines KSY-1 or KS-SLK, malignant melanoma cell line MV3 or BLM, medulloblastoma cell line …; assay: Proliferation assay on cell cultures (Example 3); assay type: cell-based; conditions: for anti-proliferative effects in tumor cells: cell lines of Example 3 treated with the substance; for anti-proliferative effect compared with Cetrorelix only: given additionally as a second GnRH antagonist
Procedure: A human cell line, such as the well known human glioblastoma cell lines U-87MG or U-373MG (Pinski et al., supra), or a human cell line such as the well known Kaposi sarcoma cell lines KSY-1 or KS-SLK (Parkash et al., 1996, New England Journal of Medicine, 335, 17, 1261-1269), or a human cell line such as the well known human malignant melanoma cell line MV3 or BLM (Goldbrunner, R. H., et al., 1996, Anticancer Research 16 (6B), 3679-87), or a human medulloblastoma cell line such as the well known cell line Daoy or D283 MED (Stockhammer et al., 1995, J. Neurosurgery, 83, 672-681), or human meningeoma cell cultures (Boyle-Wash, E., et al., 1995, Journal of Endocrinology, 145, 155-161), are cultured as previously described for the above-mentioned cell lines and then treated with a concentration of the GnRH agonist Triptorelin®, GnRH antagonist SB-75 (Cetrorelix®) or GnRH antagonist Ramorelix®. […]
In another embodiment, the above-mentioned cell lines are treated as described by Emons, G., et al., 1993, supra, and Irmer, G., 1995, supra, with a concentration of the GnRH peptide antagonist Ac-D-Nal(2)-D-4-ClPhe-D-Pal-Ser-1-MePal-D-IsopropylLys-Leu-IsopropylLys-Pro-D-AlaNH2 (also known as Ant 135-25; the Mepal portion is known as 1-Methyl-3-[3′-pyridyl]-alanine), Teverelix (also known as Antarelix®), Cetrorelix (also known as Cetrotide®), Abarelix (also known as Plenaxis®), D-63153 (also known as Ozarelix®), acyline, azaline B, antide (also known as Iturelix®), Degarelix (FE200486), Ganirelix, Nal-Glu, Orntide (also known as Ornirelix®), Elagolix, or with antagonist peptidomimetic ((2S)-2-[5-[2-(2-azabicyclo[2,2,2]oct-2-yl)-1,1-dimethyl-2-oxoethyl]-2-(3,5-dimethylphenyl)-1H-indol-3-yl]-N-(2-pyridin-4-ylethyl-)propan-1-amine (also known as “IN3”).
In another embodiment, the cell lines used above were each additionally treated with a second GnRH antagonist, namely one of the GnRH antagonists Cetrorelix®, Ant 135-25, IN3, degarelix, Antarelix®, Antide®, and Ramorelix® or alternatively with one of the GnRH antagonists that have been disclosed in U.S. Pat. Nos. 6,939,88, 6,200,957, 5,296,468, 4,851,385, 7,361,633, 7,288,517, WO/2009/106597 or PCT/EP2009/052326, U.S. Pat. Nos. 5,480,969, 5,198,533, or UK Patent GB 2 246782 B, wherein these additional treatment procedures were carried out in a manner similar to those reported in Emons et al., supra, using SB 75 (Cetrorelix®). […]

[4] = system: human melanoma cell line MV3; assay: Proliferation assay using the human malignant melanoma cell line MV3; assay type: cell-based
Procedure: The human melanoma cell line MV3 was cultured (in long-term culture in RPMI medium (Gibco Co.) with 1% Penstrep and 10% of heat-inactivated fetal calf serum). The proliferation assay was carried out with 6×10^2 cells per well in 96 well plates. First, the cells were removed from the culture flask with a […] and then washed in standard PBS solution. Following centrifugation for 10 minutes (1200 g) the supernatant was discarded and the pellet resuspended in 1 ml medium. An aliquot of 20 μl of the cells was diluted with trypan blue to obtain an 1:20 dilution. Trypan blue stains the necrotic cells. Then counting was performed in a Neubauer counting chamber. Evaluation was performed by daily determination of 4 values starting at day 0 and multiplying the mean values of the cell counts×10^4× dilution factor 20 to obtain the cell count. During the 5 days, the measurement was performed 4× daily in a Biomec spectrophotometer.
The method for determination of tumor cell proliferation is described in Lü, H. Q., et al., 1996, Journal of Cancer Research and Clinical Oncology, 122, 335-342.
The cell line was treated with (Gly-OH10)-LHRH, the LHRH hormone (FIG. 3) (Sigma Chemical Co., No. L8008) or Triptorelin, an LHRH agonist (FIG. 2) (Sigma Chemical Co., No. L9761) or Antide®, a LHRH antagonist (FIG. 1) (Sigma Chemical Co., No. A8802).
Using concentrations of 10^−4 M, 10^−5 M, and 10^−6 M, with the medium serving as a negative control from day 4 on, the following results were obtained: […]

[5] = system: U-87MG cells; assay type: cell-based, human
Procedure: U-87MG cells were plated at a density of 1400 cells/cm^2 in […] in standard culture medium. Cells were allowed to attach and start growing for 3 days; the seeding media were then changed to experimental media. Cells were treated for 7 days with ZOLADEX® (10^−10-10^−6 M); medium was changed every two days. Following treatment, cells were collected and counted by hemocytometer. Data obtained from three independent experiments were analyzed according to the Dunnett's test after one-way ANOVA.

[6] = system: Glioblastoma multiforme; assay: Phase I study with Buserelin (Example 5); assay type: in vivo, human; conditions: intravenous or intranasal, permanent medication
Procedure: Patients with non-resectable Glioblastoma multiforme following microsurgical resection and/or after external conventional radiotherapy and/or brachytherapy; or patients with a diffusely, intraaxially growing brain tumor, multifocal tumor spreading or presence of a gliomatosis cerebri, respectively; a tumor volume of more than 65 ml; or a minimal tumor diameter of more than 5 cm, were each treated with the GnRH agonist Buserelin, which was administered intravenously or alternatively by intranasal application as a permanent medication as described by Klijn, J. G. M., et al., 1982, The Lancet, May 19, […].

Question: How did the “anti-proliferative effects in tumor cells” value (“anti-proliferative effects” below) [1] turn out when Antarelix® was run?
Answer: Its value is “Significant anti-proliferative effects”.

Question: What about the “growth of malignant gliomas” value [2] of the same molecule?
Answer: Its value is “Significant growth-inhibiting effects”.

Question: What about the “anti-proliferative effects” value [3] of the same molecule?
Answer: Its value is “Significant anti-proliferative effects”.

Question: And the “anti-proliferative effect compared with Cetrorelix only” value [3]?
Answer: The value was “significantly stronger anti-proliferative effect”.

Question: With “(Gly-OH10)-LHRH (QHWSYGLRPG; Gonadoliberin-1 C-terminal free acid; UniProt P01148 24-33, looked up) [LHRH hormone, the LHRH hormone (Sigma Chemical Co., No. L8008)]” as the molecule, how does the “function of the LHRH hormone on MV3 growth in vitro” value [4] read?
Answer: Its value is “positive growth factor”.

Question: Which results are given for CC(=O)N[C@H](Cc1ccc2ccccc2c1)C(=O)N[C@H](Cc1ccc(Cl)cc1)C(=O)N[C@H](Cc1cccnc1)C(=O)N[C@@H](CO)C(=O)N[C@@H](Cc1ccc(O)cc1)C(=O)N[C@H](CCCNC(N)=O)C(=O)N[C@@H](CC(C)C)C(=O)N[C@@H](CCCNC(=N)N)C(=O)N1CCC[C@H]1C(=O)N[C@H](C)C(N)=O [Cetrorelix®] (Ac-[d2Nal][dPhe(4-Cl)][d3Pal]SY[dCit]LRP[dA]-NH2)?
Answer: inhibition of proliferation compared to controls ([5]; 10^−5 M): 30%; decrease of proliferation ([5]; 10^−6 M): 28%; anti-proliferative effects in tumor cells [1]: Significant anti-proliferative effects; growth of malignant gliomas [2]: Significant growth-inhibiting effects; anti-proliferative effects in tumor cells [3]: Significant anti-proliferative effects; anti-proliferative effect compared with Cetrorelix only [3]: significantly stronger anti-proliferative effect

Question: With CCNC(=O)[C@@H]1CCCN1C(=O)[C@H](CCCNC(=N)N)NC(=O)[C@H](CC(C)C)NC(=O)[C@@H](COC(C)(C)C)NC(=O)[C@H](Cc1ccc(O)cc1)NC(=O)[C@H](CO)NC(=O)[C@H](Cc1c[nH]c2ccccc12)NC(=O)[C@H](Cc1cnc[nH]1)NC(=O)[C@@H]1CCC(=O)N1 [Buserelin] as the molecule, how does the recidivation-free survival [6] read?
Answer: The recidivation-free survival was “longer than that described following Tamoxifen treatment of glioma”.

Question: What about the “growth of malignant gliomas” value [2] of the same molecule?
Answer: The value was “Significant growth-inhibiting effects”.

Question: And the “anti-proliferative effects” value [3]?
Answer: Its value is “Significant anti-proliferative effects”.

Question: Which results are given for Antide®?
Answer: inhibition of proliferation ([4]; 10^−4 M, from day 4 on): 15%; inhibition of proliferation ([4]; 10^−5 M, from day 4 on): 35%; inhibition of proliferation ([4]; 10^−6 M): no inhibition; stimulation of the growth ([4]; 10^−6 M): 40%; anti-proliferative effects in tumor cells [1]: Significant anti-proliferative effects; growth of malignant gliomas [2]: Significant growth-inhibiting effects; anti-proliferative effects in tumor cells [3]: Significant anti-proliferative effects; anti-proliferative effect compared with Cetrorelix only [3]: significantly stronger anti-proliferative effect

Question: Which “growth of malignant gliomas” value [2] does the source give for CCNC(=O)[C@@H]1CCCN1C(=O)[C@H](CCCNC(=N)N)NC(=O)[C@H](CC(C)C)NC(=O)[C@@H](CC(C)C)NC(=O)[C@H](Cc1ccc(O)cc1)NC(=O)[C@H](CO)NC(=O)[C@H](Cc1c[nH]c2ccccc12)NC(=O)[C@H](Cc1c[nH]cn1)NC(=O)[C@@H]1CCC(=O)N1 [LEUPRORELIN®] here?
Answer: The value was “Significant growth-inhibiting effects”.

Question: And the “anti-proliferative effects” value [3]?
Answer: The value was “Significant anti-proliferative effects”.

Question: With CC(C)C[C@H](NC(=O)CNC(=O)[C@H](Cc1ccc(O)cc1)NC(=O)[C@H](CO)NC(=O)[C@H](Cc1c[nH]c2ccccc12)NC(=O)[C@H](Cc1cnc[nH]1)NC(=O)[C@@H]1CCC(=O)N1)C(=O)N[C@@H](CCCNC(=N)N)C(=O)N1CCC[C@H]1C(=O)NCC(N)=O [Gonadorelin] as the molecule, how does the “anti-proliferative effects” value [1] read?
Answer: Its value is “Significant anti-proliferative effects”.

Question: And the “anti-proliferative effects” value [3]?
Answer: Its value is “Significant anti-proliferative effects”.

Question: Which results are given for Nal-Glu?
Answer: anti-proliferative effects in tumor cells [1]: Significant anti-proliferative effects; anti-proliferative effects in tumor cells [3]: Significant anti-proliferative effects
